The source of these data is patent US11534434B2 (Karuna Therapeutics, Inc., priority 2019, dated 2022).

Data set [1] is described as follows: Storage stability of the tartrate salt (reanalysis by LC-MS, 1H NMR, 19F NMR). The class given is physicochemical. As to the method: The tartrate salt of the title compound was unstable at test storage conditions. Although the initial NMR spectra were clean, the LCMS purity was about 75%. After storage at 0° C. for six months, the sample was reanalyzed by ^1H-NMR, ^19F-NMR, and LC-MS.

The nature of data set [2]: Human liver microsome stability. The format is in vitro ADME. As to conditions: human liver microsomes. As to the method: Human Liver Microsome Stability
Test compounds were dissolved in DMSO to prepare 10 mM stock solutions, diluted to a final test concentration of 100 nM, and incubated at 37° C. with human liver microsomes. Metabolic stability, expressed as a percent of the parent compound remaining, was assessed at 0, 15, 30, 45, and 60 minutes and calculated by comparing the compound's peak area at the time point relative to that at time-0. The half-life (T1/2) was estimated from the slope of the initial linear range of the logarithmic curve of compound remaining (%) vs. time, assuming first-order kinetics. The apparent intrinsic clearance (CLint, in μL/min/pmol, μL/min/mg or μL/min/Mcell) was calculated according to the following formula: CLint=0.693 T1/2*(mg protein/μL or million cells/μL or pmol CYP isoyme/μL).

The next data set addresses T1, human M1 mAChR (Homo sapiens, UniProt P11229).
T1 construct: expressed in transfected cells
T1 sequence (P11229 1-460): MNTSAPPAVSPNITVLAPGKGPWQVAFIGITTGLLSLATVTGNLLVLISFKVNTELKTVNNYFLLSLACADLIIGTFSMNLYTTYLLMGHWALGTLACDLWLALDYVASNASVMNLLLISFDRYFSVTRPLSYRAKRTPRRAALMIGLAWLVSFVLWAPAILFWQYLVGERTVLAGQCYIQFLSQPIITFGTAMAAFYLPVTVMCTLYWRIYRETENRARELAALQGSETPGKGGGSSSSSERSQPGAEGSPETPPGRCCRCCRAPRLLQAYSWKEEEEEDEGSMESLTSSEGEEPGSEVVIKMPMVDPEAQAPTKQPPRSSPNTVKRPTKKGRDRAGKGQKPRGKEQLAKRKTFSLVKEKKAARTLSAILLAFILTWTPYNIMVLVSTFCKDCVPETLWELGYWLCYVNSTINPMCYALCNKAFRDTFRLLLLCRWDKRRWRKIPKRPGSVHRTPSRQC
Briefly: Whole-cell functional agonist activity, FLIPR Ca2+ release, U2OS-based human M1 mAChR stable cell line. The source says: (§1) Whole-cell functional agonist activity in cells expressing recombinant human muscarinic receptor subtypes.
(§2) ThermoFisher's FLIPR™ (Fluorescence Imaging Plate Reader) was used to quantify Ca^2+ release, a functional effect associated with Gaq-coupled M1 and M5 mAChRs. CisBio's phospho-ERK (pERK) Thr202/Tyr204 was used to evaluate Gai/o-coupled M2 and M4 mAChRs responses.
(§3) One day before the assay, M1, M3, and M5 cells were thawed out and plated at 10,000 cells/well into black-walled, clear-bottom, Poly-D-lysine coated 384-well microplates and incubated at 37° C. and 5% CO2 in MEME+10% FBS+1× penicillin/streptomycin/glutamine, for the M1 and M3 cell lines and F-12+10% FBS+1× penicillin/streptomycin/glutamine for the M5 cell line. […] The M1 and M5 responses were analyzed using the CBIS data analysis suite (ChemInnovation, CA).
(§4) Percentage activity was calculated using the following formula: % Activity=100%×(mean RFU of test sample mean RFU of vehicle control)/(mean MAX RFU control ligand mean RFU of vehicle control) where RFU is relative fluorescence unit. The M2 and the M4 cells were thawed out one day before the assay and plated at 2,000 and 1,000 cells per well, respectively, in […] of DMEM/F12+10% FBS in ProxiPlate 384-well white-walled, white-bottom tissue culture-treated plates and incubated at 37° C. and 5% CO2 overnight. Before the assay, cells were serum-starved at 37° C. in 5% CO2 for 4 hours by replacing culture media with […] of F12 media with 8 mM HEPES. The pERK assay was run according to assay kit instructions with minor volume modifications outlined below.

Another data set addresses T2, human M3 mAChR (Homo sapiens, UniProt P20309).
T2 construct: expressed in transfected cells
Briefly: Whole-cell functional agonist activity, FLIPR Ca2+ release, U2OS-based human M3 mAChR stable cell line.
From the text: as §1, §2
One day before the assay, M1, M3, and M5 cells were thawed out and plated at 10,000 cells/well into black-walled, clear-bottom, Poly-D-lysine coated 384-well microplates and incubated at 37° C. and 5% CO2 in MEME+10% FBS+1× penicillin/streptomycin/glutamine, for the M1 and M3 cell lines and F-12+10% FBS+1× penicillin/streptomycin/glutamine for the M5 cell line. On the day of the test, the media was aspirated and replaced with […] fluo-4 dye loading buffer (1× dye, 1× additive A and 2.5 mM fresh probenecid in HBSS and 20 mM HEPES) and incubated at 37° C. and 5% CO2 for 45 minutes. After the incubation, cells were removed from the incubator, […] of HBSS and 20 mM HEPES was added for a total volume of […], and the cells were allowed to equilibrate at room temperature for 15 minutes in the dark before compounds were applied, by adding 4× compound solution in […] of HBSS, 0.4% DMSO and 20 mM HEPES buffer (made from a 10 mM compound stock solution in 100% DMSO), and responses were recorded for 2 minutes in FLIPR Tetra after compound administration. The M1 and M5 responses were analyzed using the CBIS data analysis suite (ChemInnovation, CA).
as §4

A further data set concerns the target T3, human M5 mAChR (Homo sapiens, UniProt P08912).
T3 construct: expressed in transfected cells
T3 sequence (P08912 1-532): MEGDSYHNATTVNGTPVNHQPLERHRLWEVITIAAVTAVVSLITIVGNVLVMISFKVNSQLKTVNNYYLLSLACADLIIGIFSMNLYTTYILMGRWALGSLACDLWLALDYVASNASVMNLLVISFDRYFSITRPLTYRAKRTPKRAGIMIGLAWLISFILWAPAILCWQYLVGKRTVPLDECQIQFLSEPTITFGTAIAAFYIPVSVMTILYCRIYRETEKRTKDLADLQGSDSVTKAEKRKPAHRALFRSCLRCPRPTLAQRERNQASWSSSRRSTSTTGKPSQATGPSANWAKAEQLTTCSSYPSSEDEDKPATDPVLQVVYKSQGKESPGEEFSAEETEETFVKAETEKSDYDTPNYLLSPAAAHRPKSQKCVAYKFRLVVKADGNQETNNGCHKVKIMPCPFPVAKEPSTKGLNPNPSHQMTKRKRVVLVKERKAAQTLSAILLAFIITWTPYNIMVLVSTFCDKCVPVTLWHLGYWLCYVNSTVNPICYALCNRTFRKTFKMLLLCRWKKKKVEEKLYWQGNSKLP
The data set is described as follows: Whole-cell functional agonist activity, FLIPR Ca2+ release, CHOK1-based human M5 mAChR stable cell line.
From the text: as §1, §2, §3, §4

For data set [3], the system named is muscarinic acetylcholine receptor (mAChRs) human M1-M5 (hM1-hM5). As to conditions: pERK, CHO cells. The source says:
In-Vitro Radioligand Binding Assays
The Flp-In™ cell lines are designed to generate stable cell lines that express a protein of interest from an Flp-In™ expression vector.
An extracellular signal-related kinase (ERK1/2 or p42/44) is a kinase in the mitogen-activated protein kinase (MAPK) family. Phosphorylation of ERK (pERK) can be used as a common endpoint measurement for the activation of many classes of G protein-coupled receptors (GPCR) and beta-arrestin linked signaling.
For the pERK assay, cells were serum-starved for 5 to 6 hours. Curves were normalized to the maximum response from the fetal bovine serum (FBS) medium corresponding to a 5-minute stimulation. A 5-minute incubation with the agonists was selected for the dose-response pERK assays (n=2).
Nonlinear regression curves were calculated per the three parameters method with no constraints.

[4] abbreviates: top of curve, % activity vs MAX control ligand, FLIPR Ca2+.

T2 sequence (P20309 whole entry): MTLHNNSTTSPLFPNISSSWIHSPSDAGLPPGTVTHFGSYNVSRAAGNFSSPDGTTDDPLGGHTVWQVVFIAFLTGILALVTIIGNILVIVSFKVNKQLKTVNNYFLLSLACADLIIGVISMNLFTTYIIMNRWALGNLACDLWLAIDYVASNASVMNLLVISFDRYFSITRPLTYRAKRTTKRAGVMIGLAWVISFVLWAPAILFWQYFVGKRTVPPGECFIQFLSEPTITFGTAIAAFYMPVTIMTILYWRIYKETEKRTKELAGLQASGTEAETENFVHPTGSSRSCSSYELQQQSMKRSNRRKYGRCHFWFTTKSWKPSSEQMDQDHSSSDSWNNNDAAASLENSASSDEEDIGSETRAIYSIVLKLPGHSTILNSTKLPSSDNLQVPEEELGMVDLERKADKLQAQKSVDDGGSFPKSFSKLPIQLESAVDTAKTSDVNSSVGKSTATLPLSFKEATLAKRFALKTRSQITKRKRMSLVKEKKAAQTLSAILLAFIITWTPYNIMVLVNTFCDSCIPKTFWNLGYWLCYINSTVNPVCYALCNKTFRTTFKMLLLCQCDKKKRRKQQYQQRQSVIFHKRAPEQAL

For `FC(F)(F)CCCCCOc1nsnc1C1=CCCN(C(F)(F)F)C1` [Example 2, 3-((6,6,6-Trifluorohexyl)oxy)-4-(1-(trifluoromethyl)-1,2,5,6-tetrahydropyridin-3-yl)-1,2,5-thiadiazole], the “storage stability of tartrate salt” value in data set [1] (six months of storage at 0° C., LC-MS, 1H NMR, 19F NMR) is “none of the title compound remained in the sample”.
For the compound `CCCCCCOc1nsnc1C1=CCCN(C(F)(F)F)C1` [Example 3, 3-(Hexyloxy)-4-(1-(trifluoromethyl)-1,2,5,6-tetrahydropyridin-3-yl)-1,2,5-thiadiazole], in data set [1] (after 2 days), the “stability of tartrate salt preparation by LCMS” value was “turned messy”.
Turning to `CCCC(F)(F)CCOc1nsnc1C1=CCCN(C)C1` [Example 10, 3-((3,3-Difluorohexyl)oxy)-4-(1-methyl-1,2,5,6-tetrahydropyridin-3-yl)-1,2,5-thiadiazole], the microsomal CLint at 100 nM in data set [2] (apparent intrinsic clearance, no unit in table (μL/min/pmol, μL/min/mg or μL/min/Mcell)) amounted to 701 µL/min/mg. Moreover, in data set [2] (100 nM, 37° C., tartrate salt), the “Parent at 60 min (%)” value turned out to be 1%. Besides, in data set [2] (100 nM, 37° C., tartrate salt), the half-life at 100 nM came to 10 min. The EC50 was 4.2 nM at human M1 mAChR (agonist, FLIPR Ca2+ release, U2OS human M1 cells); more than 10000 nM on human M3 mAChR (agonist, FLIPR Ca2+ release, U2OS human M3 cells); 26.5 nM on human M5 mAChR (agonist, FLIPR Ca2+ release, CHOK1 human M5 cells). Also, the maximal response (Emax) is 90% on human M1 mAChR (setting [4]), 9% on human M3 mAChR (setting [4]) and 87% at human M5 mAChR (setting [4]).
Take `[2H]C([2H])([2H])C([2H])([2H])C([2H])([2H])C([2H])([2H])C([2H])([2H])C([2H])([2H])Oc1nsnc1C1=CCCN(C)C1` [Xanomeline-d13, 3-((Hexyl-1,1,2,2,3,3,4,4,5,5,6,6,6-d13)oxy)-4-(1-methyl-1,2,5,6-tetrahydropyridin-3-yl)-1,2,5-thiadiazole]: in data set [3], the “agonist profile at hM3, hM5, hM2” value is listed as “modestly potent partial agonists at mAChRs hM3>hM5>hM2” and the “agonist profile at hM4, hM1” value is listed as “efficacious partial agonist at hM4>hM1”.
The matching figures for `[2H]C([2H])([2H])N1CCC=C(c2nsnc2OC([2H])([2H])C([2H])([2H])C([2H])([2H])C([2H])([2H])C([2H])([2H])C([2H])([2H])[2H])C1` [Xanomeline-d16, 3-((hexyl-1,1,2,2,3,3,4,4,5,5,6,6,6-d13)oxy)-4-(1-(methyl-d3)-1,2,5,6-tetrahydropyridin-3-yl)-1,2,5-thiadiazole]: “modestly potent partial agonists at mAChRs hM3>hM5>hM2” and “efficacious partial agonist at hM4>hM1”.
